US20250268895A1, “Crystalline Forms of a BTK Inhibitor” (NOVARTIS AG, priority 2019, published 2025)

Tests used:
Type in all cases: physicochemical
[1] = Solvent equilibration of Modification A (stability in solvent, HT-XRPD)
Procedure: Suspensions of Modification A were prepared in 23 selected solvents and let to equilibrate at room temperature (RT) for 4 weeks and at 50° C. for 2 weeks. Upon completion of the equilibration time, the solids were separated from the liquid phases, dried at ambient conditions and under vacuum (5 mbar/50° C.), and analyzed by HT-XRPD.
When the suspensions dissolved, the solvent was removed by evaporation under vacuum (initially at 200 mbar/RT, then at 5 mbar/50° C.). The liquid phases were also evaporated under the same conditions. Residual solids were analyzed by HT-XRPD.

[2] = Stability under compression; conditions: 5 minutes at 10 tons, hydraulic press
Procedure: 100-300 mg of polymorphic Form A was compressed for 5 minutes at 10 tons with a hydraulic press (diameter of the tablets 13 mm). The sample was then analyzed by XRPD and DSC to check for any occurring polymorphic change.

[3] = Dynamic vapor sorption (DVS); conditions: for DVS highest change in mass: 95% RH
[4] = Moisture uptake at 80% and 92% RH (HT-XRPD, TGMS); conditions: 25° C., 24 hours
Procedure: The moisture sorption of Modification A was evaluated by exposing the solid material to 80% and 92% RH at 25° C. for 24 hours. Afterwards, the solids were analyzed by HT-XRPD to evaluate any change in crystalline phase, and by TGMS to determine the water uptake. […] Therefore, Modification A could be considered non-hygroscopic.

[5] = Granulation simulation experiments; conditions: water, ethanol, 2-propanol, Acetone, benzylalcohol; dried under vacuum
Procedure: Granulating solvents were added drop wise to polymorphic Form A until solid is wetted sufficiently. The suspension was stirred by Vortex between each addition. The suspension was dried under vacuum. The remaining solid form was isolated and degree of crystallinity was analyzed by XRPD and/or DSC. The tested Granulating solvents were water, ethanol, 2-propanol, Acetone, benzylalcohol.

[6] = Physico-chemical stability under stress conditions (HR-XRPD, TGMS, HPLC assay); conditions: for XRPD pattern after stress conditions: all three test conditions (80° C. 1 month; 80° C./75% RH 1 month; 100° C. 3 days)
Procedure: Modifications A, B and C were subjected to the following stress conditions: • 80° C. in closed vials for 1 month; • 80° C./75% RH in open vials for 1 month; • 100° C. in closed vials for 3 days;
Afterwards, the solids were analyzed by HR-XRPD, TGMS and HPLC assay to evaluate potential solid phase change, loss on drying and chemical purity.
Upon completion of the stability test, all solids were analyzed by HR-XRPD, TGMS and HPLC assay.
Auto sampler temp.: 15° C.
Column: Waters Sunfire C18 (100×4.6 mm; 3.5 μm).
Gradient: Mobile phase A: 0.1% TFA in Water
Mobile phase B: 0.1% TFA in Acetonitrile

[7] = Solvent equilibration of Modifications B and C (stability in solvent, HT-XRPD)
Procedure: Suspensions of Modifications B and C were prepared in 15 selected solvents and let to equilibrate at RT for 2 weeks and at 50° C. for 1 week. Upon completion of the equilibration time, the solids were separated from the liquid phases, dried at ambient conditions and under vacuum (5 mbar/50° C.), and analyzed by HT-XRPD.
When the suspensions dissolved, the solvent was removed by evaporation under vacuum (initially 200 mbar/RT, then 5 mbar/50° C.). The liquid phases were also evaporated under the same conditions. Residual solids were analyzed by HT-XRPD.

[8] = Conversion at room temperature monitored by HR-XRPD; conditions: left at room temperature
Excerpt: Modification C (Example 2) was left at room temperature and the conversion into Modification B was monitored by HR-XRPD and it was complete after 5 days.

[9] = 80° C./75% RH, 1 month, open vial
[10] = Dichloromethane, 50° C., 1 week

With `C=CC(=O)N(C)CCOc1c(N)ncnc1-c1cc(F)cc(NC(=O)c2ccc(C3CC3)cc2F)c1C` [Modification A, N-(3-(6-Amino-5-(2-(N-methylacrylamido)ethoxy)pyrimidin-4-yl)-5-fluoro-2-methylphenyl)-4-cyclopropyl-2-fluorobenzamide] the “HT-XRPD Evap. ML” value ([1]; Acetone, 50° C., 2 weeks) was “A (l.y.)”, the “HT-XRPD Evap. ML” value ([1]; Acetonitrile, 50° C., 2 weeks) was “A (l.y.)” and the “HT-XRPD Evap. ML” value ([1]; Anisole, 50° C., 2 weeks) was “A (l.y.)”. The “HT-XRPD Evap. ML” value ([1]; Chloroform, 50° C., 2 weeks) was “A + B”, the “HT-XRPD Vacuum dried” value ([1]; DCM, RT, 4 weeks) was “B + C” and the “HT-XRPD Evap. ML” value ([1]; Isopropyl acetate, 50° C., 2 weeks) was “A (l.y.)”. For the same compound, the “HT-XRPD Evap. ML” value ([1]; MeOH, RT, 4 weeks) was “A (l.y.)”, the “HT-XRPD Evap. ML” value ([1]; MeOH/Acetone 50/50, RT, 4 weeks) was “A (l.y.)” and the “HT-XRPD Evap. ML” value ([1]; MeOH/DCM 50/50, RT, 4 weeks) was “B (l.y.)”. The “HT-XRPD Vacuum dried” value ([1]; MeOH/DCM 50/50, RT, 4 weeks) was “B + C”, the “HT-XRPD Evap. ML” value ([1]; Nitromethane, 50° C., 2 weeks) was “A (l.y.)” and the “HT-XRPD Evap. ML” value ([1]; Water, 50° C., 2 weeks) was “A (l.y.)”. For the same compound, the “Polymorphic change (XRPD and DSC) after compression” value [2] was “no change to the material”, the “Solid recovered after DVS measurements” value ([3]; 25° and 40° C.) was “still Modification A” and the “DVS water vapor uptake” value ([3]; 25° and 40° C., RH profile 40-0-95-0-95-40%) was “did not show significant water vapor uptake”. For the same compound, the “DVS highest change in mass” value ([3]; 25° C.) was 0.4%, the “DVS highest change in mass” value ([3]; 40° C.) was 0.3% and the “TGMS mass loss after exposure to humidity” value ([4]; 80% RH) was 0.2%. For the same compound, the Hygroscopicity ([4]; 80% and 92% RH) was “non-hygroscopic”, the “Physical stability (HT-XRPD) after exposure to humidity” value ([4]; 80 and 92% RH) was “physically stable” and the “TGMS mass loss after exposure to humidity” value ([4]; 92% RH) was 0.2%. The “Crystallinity (XRPD and/or DSC) after granulation simulation” value [5] was “No change of crystallinity”, the Loss on drying ([6]; 80° C., 1 month, closed vial) was 0.003% and the Loss on drying [6, 9] was 0.003%. For the same compound, the Loss on drying ([6]; 100° C., 3 days, closed vial) was 0.003% and the “XRPD pattern after stress conditions” value [6] was “unchanged”.

In the case of `C=CC(=O)N(C)CCOc1c(N)ncnc1-c1cc(F)cc(NC(=O)c2ccc(C3CC3)cc2F)c1C` [Modification B, N-(3-(6-Amino-5-(2-(N-methylacrylamido)ethoxy)pyrimidin-4-yl)-5-fluoro-2-methylphenyl)-4-cyclopropyl-2-fluorobenzamide], the “HT-XRPD Evap. ML” value ([7]; Acetonitrile, 50° C., 1 week) is reported as “A (l.y.)”, the “HT-XRPD Evap. ML” value ([7]; Anisole, RT, 2 weeks) is reported as “A (l.y.)” and the “HT-XRPD Ambient Dried” value ([7]; Chloroform, RT, 2 weeks) is reported as “A (l.y)”. The “HT-XRPD Vacuum dried” value ([7]; Chloroform, RT, 2 weeks) was “(l.c.)”, the “HT-XRPD Evap. ML” value [7, 10] was “B + C” and the “HT-XRPD Vacuum dried” value [7, 10] was “B + C”. The “HT-XRPD Ambient Dried” value ([7]; Dichloromethane, RT, 2 weeks) was “C (l.c.)”, the “HT-XRPD Evap. ML” value ([7]; Dichloromethane, RT, 2 weeks) was “B + SB (l.y.)” and the “HT-XRPD Vacuum dried” value ([7]; Dichloromethane, RT, 2 weeks) was “B + C”. For the same compound, the “HT-XRPD Evap. ML” value ([7]; Ethanol, 50° C., 1 week) was “A (l.y.)”, the “HT-XRPD Evap. ML” value ([7]; Isopropyl acetate, 50° C., 1 week) was “A (l.y.)” and the “HT-XRPD Evap. ML” value ([7]; Nitromethane, RT, 2 weeks) was “A (l.y.)”. The “DVS water vapor uptake” value ([3]; Modifications B and C) was “did not show significant water vapor uptake”, the “XRPD of solid recovered after DVS measurement” value ([3]; Modifications B and C, 25° C.) was “unchanged” and the Loss on drying ([6]; 80° C., 1 month, closed vial) was 0.009%. For the same compound, the Loss on drying [6, 9] was 0.004%, the Loss on drying ([6]; 100° C., 3 days, closed vial) was 0.004% and the “XRPD pattern after stress conditions” value [6] was “unchanged”.

In the case of `C=CC(=O)N(C)CCOc1c(N)ncnc1-c1cc(F)cc(NC(=O)c2ccc(C3CC3)cc2F)c1C` [Modification C, N-(3-(6-Amino-5-(2-(N-methylacrylamido)ethoxy)pyrimidin-4-yl)-5-fluoro-2-methylphenyl)-4-cyclopropyl-2-fluorobenzamide], the “HT-XRPD Evap. ML” value ([7]; 2-Methyl-2-butanol, 50° C., 1 week) is reported as “A (l.y.)”, the “HT-XRPD Evap. ML” value ([7]; Acetone, 50° C., 1 week) is reported as “A (l.y.)” and the “HT-XRPD Evap. ML” value ([7]; Acetonitrile, 50° C., 1 week) is reported as “A (l.y.)”. For the same compound, the “HT-XRPD Evap. ML” value ([7]; Anisole, RT, 2 weeks) was “A (l.y.)”, the “HT-XRPD Ambient Dried” value ([7]; Chloroform, RT, 2 weeks) was “C + SC” and the “HT-XRPD Evap. ML” value ([7]; Chloroform, RT, 2 weeks) was “C + SC”. The “HT-XRPD Evap. ML” value ([7]; Cyclopentanone, RT, 2 weeks) was “A (l.y)”, the “HT-XRPD Evap. ML” value [7, 10] was “C (l.y.)” and the “HT-XRPD Vacuum dried” value ([7]; Dichloromethane, RT, 2 weeks) was “B + C”. The “HT-XRPD Evap. ML” value ([7]; Ethanol, 50° C., 1 week) was “A (l.y.)”, the “HT-XRPD Evap. ML” value ([7]; Ethanol, RT, 2 weeks) was “A (l.y.)” and the “HT-XRPD Evap. ML” value ([7]; Isopropyl acetate, RT, 2 weeks) was “A (l.y.)”. The “HT-XRPD Evap. ML” value ([7]; Methanol, RT, 2 weeks) was “A (l.y.)”, the “HT-XRPD Evap. ML” value ([7]; Nitromethane, 50° C., 1 week) was “A (l.y.)” and the “HT-XRPD Evap. ML” value ([7]; Nitromethane, RT, 2 weeks) was “A (l.y.)”. For the same compound, the “HT-XRPD Evap. ML” value ([7]; Water, RT, 2 weeks) was “A (l.y.)”, the “DVS water vapor uptake” value ([3]; Modifications B and C) was “did not show significant water vapor uptake” and the “XRPD of solid recovered after DVS measurement” value ([3]; Modifications B and C, 25° C.) was “mixture of Modifications B and C”. For the same compound, the “Time to complete conversion into Modification B” value [8] was 5 days, the Loss on drying ([6]; 80° C., 1 month, closed vial) was 0.007% and the Loss on drying [6, 9] was 0.006%. The Loss on drying ([6]; 100° C., 3 days, closed vial) was 0.003% and the “XRPD pattern after stress conditions” value [6] was “converted to Modification B”.
